Reference: US4758558A, “N-(substituted)-[7-(2-cyanoacetamido)cephalosporanic]amide derivatives having antibiotic utility” (priority 1982, dated 1988)

What was measured:
[1] = test system: Pseudomonas aeruginosa; test: Effect on intestinal bacteria: number of Pseudomonas aeruginosa in feces; type: in vivo, ICR mice; details: 500 mg/kg/day
Protocol: (§1) Effects of the present compound on intestinal bacteria
(§2) Each of the present compounds respectively produced in Examples 1 to 18 was orally administered continuously for 2 days at a daily dose rate of 500 mg/kg body weight to each of five female ICR mice of each group after 6 weeks of their birth.
(§3) Each of the two fecal specimens respectively collected from each mouse before and after one day of the administration was diluted with 100 times by weight of an anaerobic diluent (a phosphoric acid buffer solution) and was ground in a mortar, and 0.1 ml of the thus ground material was smeared on each of the following culture media for the following bacteria, and the thus inoculated culture media were incubated under the following conditions. Thereafter, the number of the following bacteria in each of the thus cultured media was determined.
NAC agar 37° C., one day, […]

[2] = test system: Staphylococcus aureus IAM 1011; test: Antibacterial activity in vitro (MIC) against Staphylococcus aureus; type: cell-based; details: IAM1011, Mueller-Hinton agar, 18 to 24 hours, 37° C., read-out: MIC (minimum growth inhibiting concentration) against Staphylococcus aureus
Protocol: (§4) (c) Anti-bacterial activity (in vitro):
(§5) Minimum concentration of the present compound inhibiting the growth of the following bacteria was determined according to the standard procedures of Japan Society of Chemotherapy:
Staphylococcus aureus IAM 1011
(§6) Determination of the antibacterial activity of the present compound produced in Examples 1 to 18, respectively was carried out according to the standard procedures of Japan Society of Chemotherapy for finding MIC (the minimum concentration of a specimen to inhibit the growth of a species of bacteria).
(§7) A series of diluted solutions of each of the present compound were mixed with 9 times by weight of Mueller-Hinton's culture medium as the culture medium for determining the sensitivity of a bacterial species, and flat agar culture plates were prepared by using the thus obtained mixture.
(§8) Each of the liquids respectively containing one of the bacterial species shown in Table 2 was smeared onto each of the thus prepared flat agar culture plates with a platinum loop, in length of about 2 cm, and the thus treated plates were incubated for 18 to 24 hours at 37° C. Thereafter, by observing the growth state of each bacterial species on the cultured plates, the minimum concentration of each compound completely inhibiting the growth of each bacterial species was found.

[3] = test system: a species of Streptococcus; test: Effect on intestinal bacteria: number of a sp. of Streptococcus in feces; type: in vivo, ICR mice; details: 500 mg/kg/day
Protocol: (§9) (b) Effect on the intestinal bacterial colonies: […]
as §1, §2, §3
a species of Streptococcus
TATAC agar 37° C., one day, […]

[4] = test system: Escherichia coli; test: Effect on intestinal bacteria: number of Escherichia coli in feces; type: in vivo, ICR mice; details: 500 mg/kg/day
Protocol: (b) Effect on the intestinal bacterial colonies:
[…] Each portion of the two kinds of the feces was cultured at 25° C. or 37° C. in a variety of culture medium for one to five days to see the state of Escherichia coli, Pseudomonas aeruginosa, a Streptococcus species, a Lactobacillus species, Lactobacillus bifidus and a Bacteroides species in the culture medium.
as §1
Each of the two fecal […] by weight of an anaerobic diluent (a phosphoric acid buffer solution) and was ground in a mortar, and 0.1 ml of the thus ground material was smeared on each of the following culture media for the following bacteria, and the thus inoculated culture media were incubated under the following conditions. Thereafter, the number of the following bacteria in each of the thus cultured media was determined.

[5] = test system: Escherichia coli IFO 12734; test: Antibacterial activity in vitro (MIC) against Escherichia coli; type: cell-based; details: IFO12734, Mueller-Hinton agar, 18 to 24 hours, 37° C., read-out: MIC (minimum growth inhibiting concentration) against Escherichia coli
Protocol: as §4, §5
Escherichia coli IFO 12734 and
as §6, §7, §8

[6] = test system: Lactobacillus bifidus; test: Effect on intestinal bacteria: number of Lactobacillus bifidus in feces; type: in vivo, ICR mice; details: 500 mg/kg/day
Protocol: as §9, §1, §2, §3
BS agar 37° C., 5 days, […]

[7] = test system: a species of Bacteroides; test: Effect on intestinal bacteria: number of a sp. of Bacteroides in feces; type: in vivo, ICR mice; details: 500 mg/kg/day
Protocol: as §9, §1, §2, §3
a species of Bacteroides
NBGT agar 37° C., 5 days, […]

[8] = test system: a species of Lactobacillus; test: Effect on intestinal bacteria: number of a sp. of Lactobacillus in feces; type: in vivo, ICR mice; details: 500 mg/kg/day
Protocol: as §9, §1, §2, §3
a species of Lactobacillus
LBS agar 37° C., 5 days, […]

[9] = after oral administration for 2 days, female ICR mice, before: 6.4
[10] = after oral administration for 2 days, female ICR mice, before: <3.0
[11] = after oral administration for 2 days, female ICR mice, before: 6.8
[12] = after oral administration for 2 days, female ICR mice, before: 8.3
[13] = after oral administration for 2 days, female ICR mice, before: 8.2
[14] = after oral administration for 2 days, female ICR mice, before: 9.0

Row | SMILES | Number of Pseudomonas aeruginosa after the administration ([1]; mouse, in vivo, po) | MIC [2] | Number of a sp. of Streptococcus after the administration ([3]; mouse, in vivo, po) | Number of Escherichia coli after the administration [4, 9] | MIC [5] | Number of Lactobacillus bifidus after the administration ([6]; mouse, in vivo, po) | Number of a sp. of Bacterioides after the administration ([7]; mouse, in vivo, po) | Number of a sp. of Lactobacillus after the administration ([8]; mouse, in vivo, po) | Number of Pseudomonas aeruginosa after the administration [1, 10] | Number of a sp. of Streptococcus after the administration [3, 11] | Number of Lactobacillus bifidus after the administration [6, 12] | Number of a sp. of Bacterioides after the administration [7, 13] | Number of a sp. of Lactobacillus after the administration [8, 14] | Number of Escherichia coli after the administration ([4]; mouse, in vivo, po)
1 | Cc1ccc(NC(=O)C2=C(CSc3nnc(C)s3)CSC3C(NC(=O)Cn4cnnn4)C(=O)N23)cc1 (centres unmarked) [Example 16, N-(4-methylphenyl)-{7-(1-1H-tetrazolylacetamido)-3-[2-(5-methyl-1,3,4-thiadiazolyl)thiomethyl]-3-cephem-4-carboxylic}amide] | < 3.0 Log10 (number of bacteria/g feces) | ≥ 12.5 µg/mL | 6.5 Log10 (number of bacteria/g feces) | 6.5 Log10 (number of bacteria/g feces) | ≥ 100 µg/mL | 8.3 Log10 (number of bacteria/g feces) | 8.1 Log10 (number of bacteria/g feces) | 9.2 Log10 (number of bacteria/g feces) | – | – | – | – | – | –
2 | Cc1nnc(SCC2=C(C(=O)NCCc3ccc(O)cc3)N3C(=O)C(NC(=O)Cn4cnnn4)C3SC2)s1 (stereo not drawn) [Example 17, N-[beta-(4-hydroxyphenyl)ethyl]-{7-(1-1H-tetrazolylacetamido)-3-[2-(5-methyl-1,3,4-thiadiazolyl)thiomethyl]-3-cephem-4-carboxylic}amide] | < 3.0 Log10 (number of bacteria/g feces) | ≥ 0.78 µg/mL | 6.9 Log10 (number of bacteria/g feces) | 6.4 Log10 (number of bacteria/g feces) | ≥ 3.12 µg/mL | 8.4 Log10 (number of bacteria/g feces) | 8.1 Log10 (number of bacteria/g feces) | 9.0 Log10 (number of bacteria/g feces) | – | – | – | – | – | –
3 | COC(=O)c1ccc(NC(=O)C2=C(COC(C)=O)CSC3C(NC(=O)CC#N)C(=O)N23)cc1 (centres unmarked) [Example 7, N-(4-carbomethoxyphenyl)-[7-(2-cyanoacetamido)cephalosporanic]amide] | < 3.0 Log10 (number of bacteria/g feces) | ≥ 100 µg/mL | 6.7 Log10 (number of bacteria/g feces) | 6.5 Log10 (number of bacteria/g feces) | ≥ 100 µg/mL | 8.3 Log10 (number of bacteria/g feces) | 8.7 Log10 (number of bacteria/g feces) | 9.0 Log10 (number of bacteria/g feces) | – | – | – | – | – | –
4 | COC(=O)Cc1ccc(NC(=O)C2=C(CSc3nnc(C)s3)CSC3C(NC(=O)Cn4cnnn4)C(=O)N23)cc1 (centres unmarked) [Example 14, N-(4-carbomethoxymethylphenyl)-{7-(1-1H-tetrazolylacetamido)-3-[2-(5-methyl-1,3,4-thiadiazolyl)thiomethyl]-3-cephem-4-carboxylic}amide] | < 3.0 Log10 (number of bacteria/g feces) | ≥ 12.5 µg/mL | 6.6 Log10 (number of bacteria/g feces) | 6.4 Log10 (number of bacteria/g feces) | ≥ 100 µg/mL | 8.2 Log10 (number of bacteria/g feces) | 8.4 Log10 (number of bacteria/g feces) | 9.0 Log10 (number of bacteria/g feces) | – | – | – | – | – | –
5 | CC(=O)OCC1=C(C(=O)O)N2C(=O)C(NC(=O)CC#N)C2SC1 (centres unmarked) [Compound X, sodium 7(2-cyanoacetamido)cephalosporanate, reference compound] | < 3.0 Log10 (number of bacteria/g feces) | – | 9.1 Log10 (number of bacteria/g feces) | 9.0 Log10 (number of bacteria/g feces) | – | 6.0 Log10 (number of bacteria/g feces) | 8.2 Log10 (number of bacteria/g feces) | 4.6 Log10 (number of bacteria/g feces) | – | – | – | – | – | –
6 | CC1=C(C(=O)O)N2C(=O)[C@@H](NC(=O)[C@H](N)c3ccccc3)[C@H]2SC1 [CEFALEXIN, 7(D-alpha-amino-alpha-phenylacetamido)-3-methyl-3-cephem-4-carboxylic aci, reference compound] | – | – | – | 9.2 Log10 (number of bacteria/g feces) | – | – | – | – | < 3.0 Log10 (number of bacteria/g feces) | 8.5 Log10 (number of bacteria/g feces) | 8.0 Log10 (number of bacteria/g feces) | 8.1 Log10 (number of bacteria/g feces) | 4.0 Log10 (number of bacteria/g feces) | –
7 | Cc1nnc(SCC2=C(C(=O)O)N3C(=O)[C@@H](NC(=O)Cn4cnnn4)[C@H]3SC2)s1 [SODIUM CEFAZORIN, reference compound] | < 3.0 Log10 (number of bacteria/g feces) | – | 8.6 Log10 (number of bacteria/g feces) | – | – | 9.1 Log10 (number of bacteria/g feces) | 7.3 Log10 (number of bacteria/g feces) | 4.0 Log10 (number of bacteria/g feces) | – | – | – | – | – | 8.9 Log10 (number of bacteria/g feces)
8 | CC(=O)OCC1=C(C(=O)O)N2C(=O)[C@@H](NC(=O)CSc3ccncc3)[C@H]2SC1 [CEPHAPIRIN, 7(4-pyridylthioacetamido)cephalosporanic acid, reference compound] | – | – | – | 9.0 Log10 (number of bacteria/g feces) | – | – | – | – | < 3.0 Log10 (number of bacteria/g feces) | 9.1 Log10 (number of bacteria/g feces) | 9.1 Log10 (number of bacteria/g feces) | 8.5 Log10 (number of bacteria/g feces) | 4.1 Log10 (number of bacteria/g feces) | –
